This note sets out measurements from patent publication US11395847B2, “Acylated GLP-1/GLP-2 dual agonists” (Zealand Pharma A/S, priority 2016, dated 2022).

Structures are written as SMILES. Read-outs that look alike come from different tables or passages of the source. Where a SMILES comes first, the peptide text is derived from it.

This series is described as follows: Solubility assessment (turbidity absorbance at 325 nm). In kind it is physicochemical. On the procedure: A stock solution of the test peptide (2 mg/ml; determined from the weighed amount of peptide) in demineralized water adjusted to pH 2.5 with HCl was prepared, and aliquots were diluted 1:1 in 100 mM acetate buffer (pH 4.0 and pH 5.0), 100 mM histidine buffer (pH 6.0 and pH 7.0) and 100 mM phosphate buffer (pH 6.0, pH 7.0 and pH 7.5), respectively, and loaded in a standard flat-bottom, non-sterile 96-well UV Microplate. The absorbance of samples (single samples, n=1) at 280 and 325 nm was measured in an absorbance-based plate reader, which was preheated to ambient temperature (typically 25° C.).

[1] abbreviates: 100 mM acetate buffer pH 4.0, ambient temperature, read-out: Solubility Acetate buffer pH 4.
Where [2] appears, read: 100 mM acetate buffer pH 5.0, ambient temperature, read-out: Solubility Acetate buffer pH 5.
Setting [3] is: 100 mM histidine buffer pH 6.0, ambient temperature, read-out: Solubility Histidine buffer pH 6.
[4] abbreviates: 100 mM histidine buffer pH 7.0, ambient temperature, read-out: Solubility Histidine buffer pH 7.
The mark [5] stands for this setting: 100 mM phosphate buffer pH 6.0, ambient temperature, read-out: Solubility Phosphate buffer pH 6.
[6] abbreviates: 100 mM phosphate buffer pH 7.0, ambient temperature, read-out: Solubility Phosphate buffer pH 7.
Where [7] appears, read: 100 mM phosphate buffer pH 7.5, ambient temperature, read-out: Solubility Phosphate buffer pH 7.5.

For orientation: solubility means the dissolved amount per volume that the medium holds.

`CC[C@H](C)[C@H](NC(=O)[C@H](Cc1ccccc1)NC(=O)[C@H](CC(=O)O)NC(=O)[C@H](CCCNC(=N)N)NC(=O)[C@H](C)NC(=O)[C@H](C)NC(=O)[C@H](CCC(N)=O)NC(=O)[C@H](CCCCNC(=O)CC[C@H](NC(=O)CCCCCCCCCCCCCCCCC(=O)O)C(=O)O)NC(=O)[C@H](CC(=O)O)NC(=O)[C@H](CC(C)C)NC(=O)[C@@H](NC(=O)[C@@H](NC(=O)[C@H](C)NC(=O)[C@H](CC(C)C)NC(=O)[C@H](CCC(=O)O)NC(=O)[C@H](CO)NC(=O)[C@@H](NC(=O)[C@H](Cc1ccccc1)NC(=O)[C@H](CO)NC(=O)CNC(=O)[C@H](CCC(=O)O)NC(=O)C(C)(C)NC(=O)[C@@H](N)Cc1c[nH]cn1)[C@@H](C)O)[C@@H](C)O)[C@@H](C)CC)C(=O)N[C@@H](C)C(=O)N[C@@H](Cc1c[nH]c2ccccc12)C(=O)N[C@@H](CC(C)C)C(=O)N[C@H](C(=O)N[C@@H](Cc1ccc(O)cc1)C(=O)N[C@@H](Cc1c[nH]cn1)C(=O)N[C@@H](CCCCN)C(=O)N[C@H](C(=O)N[C@H](C(=O)N[C@@H](CC(=O)O)C(=O)O)[C@@H](C)O)[C@@H](C)CC)[C@@H](C)CC` [Compound 27] (HELM PEPTIDE1{H.[Aib].E.G.S.F.T.S.E.L.A.T.I.L.D.K.Q.A.A.R.D.F.I.A.W.L.I.Y.H.K.I.T.D}|PEPTIDE2{[O=C(O)CCCCCCCCCCCCCCCCC(=O)[*:2]].[gGlu]}$PEPTIDE1,PEPTIDE2,16:R3-2:R2$$$V2.0): the solubility by setting is: under setting [1], < 1000 µg/mL; under setting [2], < 1000 µg/mL; under setting [3], ≥ 1000 µg/mL; under setting [4], ≥ 1000 µg/mL; under setting [5], ≥ 1000 µg/mL; under setting [6], ≥ 1000 µg/mL. Besides, the solubility under setting [7] is ≥ 1000 µg/mL.

As to `CC[C@H](C)[C@H](NC(=O)[C@H](Cc1ccccc1)NC(=O)[C@H](CC(=O)O)NC(=O)[C@H](CCCNC(=N)N)NC(=O)[C@H](C)NC(=O)[C@H](C)NC(=O)[C@H](CC(C)C)NC(=O)[C@H](CC(N)=O)NC(=O)[C@H](CC(=O)O)NC(=O)[C@H](CC(C)C)NC(=O)[C@@H](NC(=O)[C@@H](NC(=O)[C@H](CC(N)=O)NC(=O)[C@H](CCSC)NC(=O)[C@H](CCC(=O)O)NC(=O)[C@H](CC(=O)O)NC(=O)[C@H](CO)NC(=O)[C@H](Cc1ccccc1)NC(=O)[C@H](CO)NC(=O)CNC(=O)[C@H](CC(=O)O)NC(=O)CNC(=O)[C@@H](N)Cc1c[nH]cn1)[C@@H](C)O)[C@@H](C)CC)C(=O)N[C@@H](CC(N)=O)C(=O)N[C@@H](Cc1c[nH]c2ccccc12)C(=O)N[C@@H](CC(C)C)C(=O)N[C@H](C(=O)N[C@@H](CCC(N)=O)C(=O)N[C@H](C(=O)N[C@@H](CCCCN)C(=O)N[C@H](C(=O)N[C@H](C(=O)N[C@@H](CC(=O)O)C(=O)O)[C@@H](C)O)[C@@H](C)CC)[C@@H](C)O)[C@@H](C)CC` [Teduglutide, [Gly2]-hGLP-2 (1-33), reference compound], the solubility under setting [1] is < 1000 µg/mL; the solubility under setting [2] is < 1000 µg/mL; the solubility under setting [3] is < 1000 µg/mL; the solubility under setting [4] was ≥ 1000 µg/mL; the solubility under setting [5] was < 1000 µg/mL; the solubility under setting [6] is < 1000 µg/mL. Besides, the solubility under setting [7] was ≥ 1000 µg/mL.
